Holding throughout (assay type): biochemical
The target in one assay is T1, Lck (Homo sapiens, UniProt P06239).
T1 construct: Kinases are expressed as either kinase domains or full length constructs; made in house
Briefly: Kinase inhibition assay (33P transfer), Lck. The following applies: read-out: Lck-1. The method, boiled down:
(§1)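 Steps: express kinase as GST or polyHistidine fusion in E. coli or High Five cells; optionally co-express or mix with regulatory polypeptides; incubate with 33P-ATP and plate-attached poly(Glu,Tyr) 4:1 or poly(Arg,Ser) 3:1; wash with 0.5% phosphoric acid; count by liquid scintillation.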

A further assay concerns the target T2, Lyn (Homo sapiens, UniProt P07948).
T2 construct: Kinases are expressed as either kinase domains or full length constructs; made in house
Briefly: Kinase inhibition assay (33P transfer), Lyn. As to conditions: Table 6, Lyn-1 kinase inhibition class. The method, boiled down: (§2)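 GST/His-fusion kinases, E. coli or High Five expressed, affinity purified; 33P-ATP, plate-coated poly(Glu,Tyr) 4:1 or poly(Arg,Ser) 3:1; 0.5% H3PO4 wash, scintillant, LSC.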

The next assay has as its target T3, Src (Homo sapiens, UniProt P12931).
T3 construct: Kinases are expressed as either kinase domains or full length constructs; made in house
The assay can be described thus: Kinase inhibition assay (33P transfer), Src. As to conditions: Table 6, Src-1 kinase inhibition class. The method, boiled down: as §2

The next assay has as its target T4, Fyn (Homo sapiens, UniProt P06241).
T4 construct: Kinases are expressed as either kinase domains or full length constructs; made in house
Briefly: Kinase inhibition assay (33P transfer), Fyn. As to conditions: read-out: Fyn-1. The method, boiled down:
as §2

The target of the next assay is T5, Zap-70 (Homo sapiens, UniProt P43403).
T5 construct: Kinases are expressed as either kinase domains or full length constructs; made in house
T5 sequence (P43403 1-619): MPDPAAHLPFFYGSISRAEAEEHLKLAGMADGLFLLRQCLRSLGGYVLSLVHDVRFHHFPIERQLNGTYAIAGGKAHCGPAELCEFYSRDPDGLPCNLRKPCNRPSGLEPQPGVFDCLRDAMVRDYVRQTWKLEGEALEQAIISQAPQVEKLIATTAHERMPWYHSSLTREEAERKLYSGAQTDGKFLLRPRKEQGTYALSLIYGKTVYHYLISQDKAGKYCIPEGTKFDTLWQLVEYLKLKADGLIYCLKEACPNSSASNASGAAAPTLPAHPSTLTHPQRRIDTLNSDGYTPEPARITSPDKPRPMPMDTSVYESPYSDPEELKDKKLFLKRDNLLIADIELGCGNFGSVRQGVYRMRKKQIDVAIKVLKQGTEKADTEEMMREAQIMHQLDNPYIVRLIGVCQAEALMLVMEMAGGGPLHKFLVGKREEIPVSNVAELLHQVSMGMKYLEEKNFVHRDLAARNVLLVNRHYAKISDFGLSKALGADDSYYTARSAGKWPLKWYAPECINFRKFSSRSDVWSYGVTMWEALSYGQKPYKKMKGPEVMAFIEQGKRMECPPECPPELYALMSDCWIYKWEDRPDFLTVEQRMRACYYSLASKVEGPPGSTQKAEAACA
The assay can be described thus: Kinase inhibition assay (33P transfer), Zap-70. The following applies: read-out: Zap-1. The method, boiled down:
as §1

For another assay, the target named is T6, Itk (Homo sapiens, UniProt Q08881).
T6 construct: Kinases are expressed as either kinase domains or full length constructs; made in house
T6 sequence (Q08881 1-620): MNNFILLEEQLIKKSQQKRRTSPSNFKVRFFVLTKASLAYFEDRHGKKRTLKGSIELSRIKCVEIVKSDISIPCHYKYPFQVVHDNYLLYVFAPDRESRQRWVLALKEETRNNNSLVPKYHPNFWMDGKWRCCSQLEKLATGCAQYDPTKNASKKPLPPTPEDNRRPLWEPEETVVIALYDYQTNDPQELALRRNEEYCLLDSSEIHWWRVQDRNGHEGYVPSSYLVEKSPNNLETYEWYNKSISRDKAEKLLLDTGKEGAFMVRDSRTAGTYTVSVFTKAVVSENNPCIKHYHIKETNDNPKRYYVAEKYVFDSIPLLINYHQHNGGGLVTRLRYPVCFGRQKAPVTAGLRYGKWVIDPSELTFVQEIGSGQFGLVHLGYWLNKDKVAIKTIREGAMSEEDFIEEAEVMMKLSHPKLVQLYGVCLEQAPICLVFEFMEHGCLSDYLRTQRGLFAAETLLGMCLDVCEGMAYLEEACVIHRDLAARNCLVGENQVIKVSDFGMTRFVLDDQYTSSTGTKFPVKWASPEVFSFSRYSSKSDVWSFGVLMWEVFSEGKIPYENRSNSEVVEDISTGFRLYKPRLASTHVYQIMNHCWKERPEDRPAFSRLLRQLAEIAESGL
The assay can be described thus: Kinase inhibition assay (33P transfer), Itk. The following applies: read-out: Itk-1. In a few lines:
as §2

A further assay has as its target T7, EGFR (Homo sapiens, UniProt P00533).
T7 construct: Kinases are expressed as either kinase domains or full length constructs; made in house
The assay can be described thus: Kinase inhibition assay (33P transfer), EGFR. As to conditions: Table 2, kinase inhibition class; read-out: EGFR-1. The method, boiled down:
as §2

The next assay addresses T8, ErbB2 (Homo sapiens, UniProt P04626).
T8 construct: Kinases are expressed as either kinase domains or full length constructs; made in house
Briefly: Kinase inhibition assay (33P transfer), ErbB2. The following applies: read-out: ErbB2-2. In a few lines: as §2

The target of a further assay is T9, Kdr (Homo sapiens, UniProt P35968).
T9 construct: Kinases are expressed as either kinase domains or full length constructs; made in house
Briefly: Kinase inhibition assay (33P transfer), Kdr. The following applies: read-out: KDR-1. The method, boiled down: as §1

The target of another assay is T10, Flt-1 (Homo sapiens, UniProt P17948).
T10 construct: Kinases are expressed as either kinase domains or full length constructs; made in house
T10 sequence (P17948 27-1338, species assumed): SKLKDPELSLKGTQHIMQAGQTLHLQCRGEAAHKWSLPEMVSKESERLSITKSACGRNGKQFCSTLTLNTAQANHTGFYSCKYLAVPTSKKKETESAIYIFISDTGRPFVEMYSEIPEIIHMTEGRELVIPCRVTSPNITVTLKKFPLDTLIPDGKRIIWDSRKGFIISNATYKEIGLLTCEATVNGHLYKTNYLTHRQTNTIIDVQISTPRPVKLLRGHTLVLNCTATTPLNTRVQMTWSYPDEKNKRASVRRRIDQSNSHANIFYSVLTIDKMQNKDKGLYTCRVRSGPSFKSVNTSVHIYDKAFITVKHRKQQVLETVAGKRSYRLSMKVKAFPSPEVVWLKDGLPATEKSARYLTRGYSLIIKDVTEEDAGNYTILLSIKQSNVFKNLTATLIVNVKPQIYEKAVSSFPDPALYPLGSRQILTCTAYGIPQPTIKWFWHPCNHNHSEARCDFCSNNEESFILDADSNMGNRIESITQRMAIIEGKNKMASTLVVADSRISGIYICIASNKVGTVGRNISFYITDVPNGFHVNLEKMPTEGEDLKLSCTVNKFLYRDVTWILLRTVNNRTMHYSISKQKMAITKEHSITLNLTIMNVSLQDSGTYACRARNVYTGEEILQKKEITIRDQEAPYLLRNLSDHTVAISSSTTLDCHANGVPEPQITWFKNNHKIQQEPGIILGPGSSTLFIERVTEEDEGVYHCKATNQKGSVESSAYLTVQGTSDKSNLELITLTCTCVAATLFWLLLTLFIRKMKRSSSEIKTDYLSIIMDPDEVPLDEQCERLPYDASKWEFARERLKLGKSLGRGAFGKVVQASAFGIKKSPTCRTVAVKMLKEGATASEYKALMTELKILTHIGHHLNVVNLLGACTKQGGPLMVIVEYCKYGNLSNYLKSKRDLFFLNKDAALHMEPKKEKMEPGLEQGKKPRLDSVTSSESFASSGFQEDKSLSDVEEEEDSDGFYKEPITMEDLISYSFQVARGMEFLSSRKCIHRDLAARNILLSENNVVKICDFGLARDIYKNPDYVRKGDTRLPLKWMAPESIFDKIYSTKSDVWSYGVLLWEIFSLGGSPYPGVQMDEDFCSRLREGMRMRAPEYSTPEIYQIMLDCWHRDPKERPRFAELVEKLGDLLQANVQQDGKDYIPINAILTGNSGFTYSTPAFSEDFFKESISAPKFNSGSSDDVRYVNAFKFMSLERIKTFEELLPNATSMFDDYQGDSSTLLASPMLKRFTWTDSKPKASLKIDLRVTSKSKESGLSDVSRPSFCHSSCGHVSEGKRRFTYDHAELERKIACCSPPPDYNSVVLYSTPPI
The assay can be described thus: Kinase inhibition assay (33P transfer), Flt-1. The method, boiled down: as §2

Another assay has as its target T11, Tek (Homo sapiens, UniProt Q02763).
T11 construct: Kinases are expressed as either kinase domains or full length constructs; made in house
The assay can be described thus: Kinase inhibition assay (33P transfer), Tek. As to conditions: read-out: Tek-1. In a few lines:
as §2

A further assay addresses T12, c-Met (Homo sapiens, UniProt P08581).
T12 construct: Kinases are expressed as either kinase domains or full length constructs; made in house
The assay can be described thus: Kinase inhibition assay (33P transfer), c-Met. As to conditions: Table 2, kinase inhibition class; read-out: Met-1. In a few lines: as §2

The target in another assay is T13, AKT (Homo sapiens, UniProt Q9Y243).
T13 construct: Kinases are expressed as either kinase domains or full length constructs; made in house
The assay can be described thus: Kinase inhibition assay (33P transfer), AKT. The following applies: Table 2, kinase inhibition class; read-out: AKT3-1. In a few lines: as §1

Another assay deals with T14, IGFR-1 (Homo sapiens, UniProt P08069).
T14 construct: Kinases are expressed as either kinase domains or full length constructs; made in house
Briefly: Kinase inhibition assay, IGFR-1 (Table 2). The following applies: Table 2, kinase inhibition class.

The next assay deals with T15, PDGFRB (Homo sapiens, UniProt P09619).
T15 construct: Kinases are expressed as either kinase domains or full length constructs; made in house
T15 sequence (P09619 33-1106, species assumed): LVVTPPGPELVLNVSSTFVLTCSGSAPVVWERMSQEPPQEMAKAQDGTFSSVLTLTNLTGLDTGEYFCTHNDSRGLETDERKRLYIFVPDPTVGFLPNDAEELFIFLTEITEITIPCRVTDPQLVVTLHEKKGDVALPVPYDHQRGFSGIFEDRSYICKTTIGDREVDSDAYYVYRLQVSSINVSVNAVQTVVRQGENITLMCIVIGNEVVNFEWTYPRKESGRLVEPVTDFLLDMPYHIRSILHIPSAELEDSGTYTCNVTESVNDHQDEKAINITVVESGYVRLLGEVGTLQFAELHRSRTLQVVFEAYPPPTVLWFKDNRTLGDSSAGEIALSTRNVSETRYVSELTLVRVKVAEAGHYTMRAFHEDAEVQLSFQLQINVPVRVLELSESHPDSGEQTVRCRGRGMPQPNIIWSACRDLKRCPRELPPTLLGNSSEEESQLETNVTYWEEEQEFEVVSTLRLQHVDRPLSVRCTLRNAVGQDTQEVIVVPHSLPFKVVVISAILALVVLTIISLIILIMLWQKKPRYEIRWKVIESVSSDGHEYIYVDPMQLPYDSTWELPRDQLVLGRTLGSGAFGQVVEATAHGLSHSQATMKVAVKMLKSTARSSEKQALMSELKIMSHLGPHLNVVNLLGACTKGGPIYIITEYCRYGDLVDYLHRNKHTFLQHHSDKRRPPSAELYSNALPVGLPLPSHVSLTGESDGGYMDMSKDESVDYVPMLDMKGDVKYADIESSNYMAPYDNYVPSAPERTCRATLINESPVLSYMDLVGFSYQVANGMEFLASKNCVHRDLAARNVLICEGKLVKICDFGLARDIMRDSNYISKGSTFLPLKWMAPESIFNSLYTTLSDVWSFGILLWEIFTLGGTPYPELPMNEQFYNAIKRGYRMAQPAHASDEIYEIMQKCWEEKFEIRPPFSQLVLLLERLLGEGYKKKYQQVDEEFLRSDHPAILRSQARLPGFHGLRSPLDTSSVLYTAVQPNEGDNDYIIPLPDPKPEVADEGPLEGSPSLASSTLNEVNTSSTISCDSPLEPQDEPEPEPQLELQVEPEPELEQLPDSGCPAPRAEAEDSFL
Briefly: Kinase inhibition assay (33P transfer), PDGFRB. The following applies: read-out: PDGFRB-1.

A further assay concerns the target T16, Hck-1 (Homo sapiens, UniProt P08631).
T16 construct: Kinases are expressed as either kinase domains or full length constructs; made in house
Briefly: Kinase inhibition assay (33P transfer), Hck. As to conditions: Table 6, Hck-1 kinase inhibition class.

The target of the next assay is T17, ErbB4 (Homo sapiens, UniProt Q15303).
T17 construct: Kinases are expressed as either kinase domains or full length constructs; made in house
The assay can be described thus: Kinase inhibition assay (33P transfer), ErbB4. As to conditions: read-out: ErbB4-1.

A further assay addresses T18, Ret-1 (Homo sapiens, UniProt P07949).
T18 construct: Kinases are expressed as either kinase domains or full length constructs; made in house
The assay can be described thus: Kinase inhibition assay (33P transfer), Ret. The following applies: Table 6, Ret-1 kinase inhibition class.

The next assay has as its target T19, FGFR1 (Homo sapiens, UniProt P11362).
T19 construct: Kinases are expressed as either kinase domains or full length constructs; made in house
The assay can be described thus: Kinase inhibition assay (33P transfer), FGFR1. The following applies: read-out: FGFR1-1.

The values that follow come from patent US7074789B2, “Kinase inhibitors” (Amgen Inc., priority 1999, dated 2006).

Some results are limits rather than exact numbers.

T18 sequence (P07949 29-1114): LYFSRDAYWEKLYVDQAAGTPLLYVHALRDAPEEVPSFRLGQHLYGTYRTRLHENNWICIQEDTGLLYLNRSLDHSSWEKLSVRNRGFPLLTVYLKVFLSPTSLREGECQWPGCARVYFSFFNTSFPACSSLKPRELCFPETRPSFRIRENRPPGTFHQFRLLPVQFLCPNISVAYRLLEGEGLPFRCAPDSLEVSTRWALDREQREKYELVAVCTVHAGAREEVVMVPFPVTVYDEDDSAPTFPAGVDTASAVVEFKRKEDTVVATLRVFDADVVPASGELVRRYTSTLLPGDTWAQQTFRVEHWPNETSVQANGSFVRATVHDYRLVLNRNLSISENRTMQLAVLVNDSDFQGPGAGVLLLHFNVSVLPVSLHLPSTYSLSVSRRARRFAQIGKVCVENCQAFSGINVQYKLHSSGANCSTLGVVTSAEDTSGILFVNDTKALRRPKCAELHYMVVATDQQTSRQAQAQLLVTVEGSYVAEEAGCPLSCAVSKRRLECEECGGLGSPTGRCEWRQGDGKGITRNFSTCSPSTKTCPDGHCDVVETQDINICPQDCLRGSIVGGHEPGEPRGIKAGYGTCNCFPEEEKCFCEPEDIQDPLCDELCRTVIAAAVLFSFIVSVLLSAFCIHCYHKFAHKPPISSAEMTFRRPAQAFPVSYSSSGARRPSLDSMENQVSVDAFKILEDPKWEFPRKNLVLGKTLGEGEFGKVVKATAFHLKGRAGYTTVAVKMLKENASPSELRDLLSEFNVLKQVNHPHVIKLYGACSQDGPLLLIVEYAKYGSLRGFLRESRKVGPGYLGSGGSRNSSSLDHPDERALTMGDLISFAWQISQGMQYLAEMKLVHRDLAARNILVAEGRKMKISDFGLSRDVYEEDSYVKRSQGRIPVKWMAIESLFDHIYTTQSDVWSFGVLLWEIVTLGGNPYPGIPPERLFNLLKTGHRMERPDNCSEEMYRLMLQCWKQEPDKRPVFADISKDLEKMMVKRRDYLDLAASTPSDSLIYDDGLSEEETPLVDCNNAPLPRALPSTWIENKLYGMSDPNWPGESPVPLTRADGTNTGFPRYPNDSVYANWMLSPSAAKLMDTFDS
T12 sequence (P08581 25-1390): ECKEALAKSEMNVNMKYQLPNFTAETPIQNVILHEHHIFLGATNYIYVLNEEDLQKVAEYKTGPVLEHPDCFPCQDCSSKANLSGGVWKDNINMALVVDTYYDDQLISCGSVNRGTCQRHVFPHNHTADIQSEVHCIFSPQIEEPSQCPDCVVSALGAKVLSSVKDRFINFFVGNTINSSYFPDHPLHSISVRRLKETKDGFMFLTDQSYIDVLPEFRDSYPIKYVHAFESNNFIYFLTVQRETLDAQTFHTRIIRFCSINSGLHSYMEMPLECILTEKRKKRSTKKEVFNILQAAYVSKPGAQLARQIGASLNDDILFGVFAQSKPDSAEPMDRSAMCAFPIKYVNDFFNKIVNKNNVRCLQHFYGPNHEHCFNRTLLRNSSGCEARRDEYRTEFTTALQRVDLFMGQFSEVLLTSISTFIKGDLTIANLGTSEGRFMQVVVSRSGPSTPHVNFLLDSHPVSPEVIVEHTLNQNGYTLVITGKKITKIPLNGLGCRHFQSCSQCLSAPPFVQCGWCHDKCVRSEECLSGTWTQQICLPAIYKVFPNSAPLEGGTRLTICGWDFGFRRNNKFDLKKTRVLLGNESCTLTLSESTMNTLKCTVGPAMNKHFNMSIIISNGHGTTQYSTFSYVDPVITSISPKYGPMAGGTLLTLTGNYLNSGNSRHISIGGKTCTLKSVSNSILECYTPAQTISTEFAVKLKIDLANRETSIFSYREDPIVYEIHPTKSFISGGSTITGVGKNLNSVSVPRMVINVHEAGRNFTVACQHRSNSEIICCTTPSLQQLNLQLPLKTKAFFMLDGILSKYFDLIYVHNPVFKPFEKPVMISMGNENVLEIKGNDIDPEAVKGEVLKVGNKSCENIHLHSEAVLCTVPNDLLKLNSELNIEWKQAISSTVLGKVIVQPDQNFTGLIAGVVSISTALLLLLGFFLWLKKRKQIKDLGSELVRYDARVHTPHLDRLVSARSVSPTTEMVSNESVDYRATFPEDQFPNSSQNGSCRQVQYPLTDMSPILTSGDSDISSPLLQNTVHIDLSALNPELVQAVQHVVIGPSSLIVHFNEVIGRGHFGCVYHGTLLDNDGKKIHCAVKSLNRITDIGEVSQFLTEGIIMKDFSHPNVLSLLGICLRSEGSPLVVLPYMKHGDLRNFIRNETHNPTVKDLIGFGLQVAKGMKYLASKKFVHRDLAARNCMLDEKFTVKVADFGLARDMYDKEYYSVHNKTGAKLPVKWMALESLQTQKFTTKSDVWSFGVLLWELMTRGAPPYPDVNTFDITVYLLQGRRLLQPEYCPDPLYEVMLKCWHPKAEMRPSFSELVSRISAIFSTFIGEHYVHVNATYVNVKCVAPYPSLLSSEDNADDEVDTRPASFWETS

`COc1cc(Nc2ncnc(-n3c(NCc4cccc(Cl)c4)nc4ccccc43)n2)cc(OC)c1OC` [Compound 949]: the IC50 on Lck is under 0.772 µM; against Lyn, 0.772 to 4.63 µM; on Src it was over 8.69 µM; on Fyn, over 8.69 µM; on Zap-70 it was over 8.69 µM; at Itk, over 8.69 µM. Moreover, the IC50 at EGFR is over 8.69 µM; at ErbB2, over 8.69 µM; on Kdr, under 772 nM; against Flt-1, under 772 nM; at Tek, over 8.69 µM; at c-Met, 6.76 to 8.69 µM. Moreover, the IC50 at AKT is over 8.69 µM; against IGFR-1, 6.76 to 8.69 µM; at PDGFRB it was under 0.772 µM; against Hck-1 it was over 8.69 µM; at ErbB4, 0.772 to 4.63 µM; against Ret-1 it was under 772 nM. On FGFR1, the IC50 is under 0.772 µM.

Regarding `COc1cc(Nc2ncnc(-c3cccnc3NCc3ccccc3F)n2)cc(OC)c1OC` [Compound 1087], the IC50 on Lck is 5.19 to 7.57 µM; on Lyn, over 9.73 µM; against Src, over 9.73 µM; on Fyn, over 9.73 µM; on Zap-70, over 9.73 µM; at Itk, over 9.73 µM. Also, the IC50 on EGFR is over 9.73 µM; at ErbB2, over 9.73 µM; on Kdr, 865 to 5190 nM; against Flt-1, over 9730 nM; at Tek, over 9.73 µM; at c-Met, over 9.73 µM. Moreover, the IC50 is over 9.73 µM at AKT; over 9.73 µM against IGFR-1; 5.19 to 7.57 µM on PDGFRB; over 9.73 µM against Hck-1; over 9.73 µM at ErbB4; 865 to 5190 nM at Ret-1. Moreover, the IC50 on FGFR1 lay within 7.57 to 9.73 µM.

In the case of `COc1cc(Nc2ncnc(-n3c(NCCc4ccccn4)nc4ccccc43)n2)cc(OC)c1OC` [Compound 510], the IC50 at Lck is 0.802 to 4.81 µM; against Lyn it was over 9.03 µM; at Src, over 9.03 µM; on Fyn, over 9.03 µM; at Zap-70, over 9.03 µM; on Itk, 0.802 to 4.81 µM. The IC50 is over 9.03 µM on EGFR; over 9.03 µM at ErbB2; under 802 nM at Kdr; 802 to 4810 nM on Flt-1; over 9.03 µM at Tek; over 9.03 µM on c-Met. In addition, the IC50 on AKT was over 9.03 µM; at IGFR-1, over 9.03 µM; on PDGFRB it was 4.81 to 7.02 µM; at Hck-1, over 9.03 µM; on ErbB4, over 9.03 µM; against Ret-1 it was 802 to 4810 nM. In addition, the IC50 at FGFR1 was in the range of 0.802 to 4.81 µM.
